Results taken from patent publication US4920103A, “Modifications of mycinose and 3-O-demethylmycinose in tylosin-type macrolides” (Eli Lilly and Company, priority 1986, dated 1990).
In brackets after ≈: the same amount, converted by molar mass. Read-outs that look alike come from different tables or passages of the source.

Experiments:
Type in all cases: cell-based
[1] = test system: Streptococcus pneumoniae Park I; assay: MIC, standard agar-dilution assay, S. pneumoniae Park I; settings: Streptococcus pneumoniae
Method: (§1) The MIC's in Table II were determined by standard agar-dilution assays. The MIC's in Table III were obtained using conventional broth-dilution microtiter tests.

[2] = test system: Pseudomonas aeruginosa X239; assay: MIC, standard agar-dilution assay, P. aeruginosa X239
Method: as §1

[3] = test system: Staphylococcus epidermidis EPI1; assay: MIC, standard agar-dilution assay, S. epidermidis EPI1
Method: as §1

[4] = test system: Klebsiella pneumoniae X68; assay: MIC, standard agar-dilution assay, K. pneumoniae X68
Method: as §1

[5] = test system: Staphylococcus epidermidis 222; assay: MIC, standard agar-dilution assay, S. epidermidis 222
Method: as §1

Escherichia coli EC14 = assay: MIC, standard agar-dilution assay, E. coli EC14
Method: as §1

[6] = test system: Streptococcus Group D X66; assay: MIC, standard agar-dilution assay, Streptococcus Group D X66
Method: as §1

[7] = test system: Streptococcus pyogenes C203; assay: MIC, standard agar-dilution assay, S. pyogenes C203; settings: Streptococcus pyogenes, C203
Method: as §1

[8] = test system: Staphylococcus aureus V41; assay: MIC, standard agar-dilution assay, S. aureus V41; settings: Staphylococcus aureus, V41
Method: as §1

[9] = test system: Staphylococcus aureus X1.1; assay: MIC, standard agar-dilution assay, S. aureus X1.1
Method: as §1

[10] = test system: Streptococcus Group D 2041; assay: MIC, standard agar-dilution assay, Streptococcus Group D 2041; settings: GROUPD2041
Method: as §1

[11] = test system: Haemophilus influenzae C.L.; assay: MIC, standard agar-dilution assay, H. influenzae C.L.
Method: as §1

[12] = test system: Staphylococcus aureus S13E; assay: MIC, standard agar-dilution assay, S. aureus S13E
Method: as §1

[13] = test system: Haemophilus influenzae 76; assay: MIC, standard agar-dilution assay, H. influenzae 76
Method: as §1

[14] = test system: Staphylococcus aureus X400; assay: MIC, standard agar-dilution assay, S. aureus X400
Method: as §1

[15] = agar-dilution, ampicillin-sensitive strain, read-out: MIC
[16] = agar-dilution, ampicillin-resistant strain, read-out: MIC

SMILES	MIC [1] [µg/mL]	MIC ([2]; agar-dilution, read-out: MIC) [µg/mL]	MIC [3] [µg/mL]	MIC ([4]; agar-dilution, read-out: MIC) [µg/mL]	MIC [5] [µg/mL]	MIC (Escherichia coli EC14; agar-dilution, read-out: MIC) [µg/mL]	MIC [6] [µg/mL]	MIC [7] [µg/mL]	MIC [8] [µg/mL]	MIC [9] [µg/mL]	MIC [10] [µg/mL]	MIC [11, 15] [µg/mL]	MIC [12] [µg/mL]	MIC [13, 16] [µg/mL]	MIC [14] [µg/mL]	MIC [11] [µg/mL]	MIC [13] [µg/mL]	other results
CCC1OC(=O)CC(O)C(C)C(OC2OC(C)C(O)C(N(C)C)C2O)C(CCOc2ccccc2)CC(C)C(=O)C=CC(C)=CC1COC1OC(C)/C(=N\OC)C(OC)C1OC (stereo not shown) [Compound 6, 4"-O-Methoxyimino-20-DH-20-O-phenyl-desmycosin]	1 (≈ 1.14 µM)	> 128	2 (≈ 2.28 µM)	> 128	2 (≈ 2.28 µM)	> 128	4 (≈ 4.56 µM)	4 (≈ 4.56 µM)	2 (≈ 2.28 µM)	2 (≈ 2.28 µM)	8 (≈ 9.12 µM)	> 128	2 (≈ 2.28 µM)	> 128	2 (≈ 2.28 µM)			
CCC1OC(=O)CC(O)C(C)C(OC2OC(C)C(O)C(N(C)C)C2O)C(CCOc2ccccc2)CC(C)C(=O)C=CC(C)=CC1COC1OC(C)/C(=N/OC)C(OC)C1OC (stereo not shown) [Compound 7, 4"-O-Methoxyimino-20-DH-20-O-phenyl-desmycosin]	0.5 (≈ 0.57 µM)	> 128	1 (≈ 1.14 µM)	> 128	1 (≈ 1.14 µM)	> 128			1 (≈ 1.14 µM)	1 (≈ 1.14 µM)		> 128	1 (≈ 1.14 µM)	> 128	1 (≈ 1.14 µM)			MIC ([6]; agar-dilution, read-out: MIC): 2 µg/mL (≈ 2.28 µM); MIC ([7]; agar-dilution, read-out: MIC): 2 µg/mL (≈ 2.28 µM); MIC ([10]; agar-dilution, read-out: MIC): 4 µg/mL (≈ 4.56 µM)
CCC1OC(=O)CC(O)C(C)C(OC2OC(C)C(O)C(N(C)C)C2O)C(CCOc2ccccc2)CC(C)C(=O)C=CC(C)=CC1COC1OC(C)C(OS(=O)(=O)Cc2ccccc2)C(OC)C1OC (stereo not shown) [Compound 17, 4"-O-Benzylsulfonyl-20-DH-20-O-phenyl-desmycosin]	2 (≈ 1.99 µM)		4 (≈ 3.98 µM)		2 (≈ 1.99 µM)		32 (≈ 31.9 µM)	4 (≈ 3.98 µM)	4 (≈ 3.98 µM)	4 (≈ 3.98 µM)			4 (≈ 3.98 µM)		4 (≈ 3.98 µM)	> 128	> 128	MIC [2]: > 128 µg/mL; MIC [4]: > 128 µg/mL; MIC (Escherichia coli EC14): > 128 µg/mL; MIC ([10]; agar-dilution, read-out: MIC): 128 µg/mL (≈ 127 µM)
CCC1OC(=O)CC(O)C(C)C(OC2OC(C)C(O)C(N(C)C)C2O)C(CCOc2ccccc2)CC(C)C(=O)C=CC(C)=CC1COC1OC(C)C(I)C(OC)C1OC (stereo not shown) [Compound 19, 4"-Deoxy-4"-iodo-20-DH-20-O-phenyl-desmycosin]	8 (≈ 8.33 µM)	> 128	8 (≈ 8.33 µM)	> 128	8 (≈ 8.33 µM)	> 128	8 (≈ 8.33 µM)	8 (≈ 8.33 µM)	8 (≈ 8.33 µM)	8 (≈ 8.33 µM)	8 (≈ 8.33 µM)	> 128	8 (≈ 8.33 µM)	> 128	8 (≈ 8.33 µM)			
CCC1OC(=O)CC(O)C(C)C(OC2OC(C)C(OC(C)=O)C(N(C)C)C2OC(C)=O)C(CCOc2ccccc2)CC(C)C(=O)C=CC(C)=CC1COC1OC(C)C(N)C(OC)C1OC (stereo not shown) [Compound 20, 2',4'-Di-O-acetyl-4"-amino-4"-deoxy-20-DH-20-O-phenyldesmycosin]	1 (≈ 1.07 µM)	> 128	0.5 (≈ 0.536 µM)	> 128	0.25 (≈ 0.268 µM)	> 128	4 (≈ 4.29 µM)	0.25 (≈ 0.268 µM)	0.25 (≈ 0.268 µM)	0.25 (≈ 0.268 µM)	8 (≈ 8.57 µM)		0.5 (≈ 0.536 µM)		0.5 (≈ 0.536 µM)	16 (≈ 17.1 µM)	16 (≈ 17.1 µM)	
CCC1OC(=O)CC(O)C(C)C(OC2OC(C)C(OC(C)=O)C(N(C)C)C2OC(C)=O)C(CCOc2ccccc2)CC(C)C(=O)C=CC(C)=CC1COC1OC(C)C([n+]2ccccc2)C(OC)C1OC (stereo not shown) [Compound 22, 2',4'-Di-O-acetyl-4"-deoxy-20-DH-20-O-phenyl-4"-pyridinium-desmycosin]	2	> 128	2	> 128	4	> 128	16	4	4	2	16		4		4	64	32	
CCC1OC(=O)CC(O)C(C)C(OC2OC(C)C(O)C(N(C)C)C2O)C(CCOc2ccccc2)CC(C)C(=O)C=CC(C)=CC1COC1OC(C)C(NCC#N)C(OC)C1OC (stereo not shown) [Compound 27, 4"-(Cyanomethyl)amino-4"-deoxy-20-DH-20-O-phenyl-desmycosin]		> 128	0.5 (≈ 0.563 µM)	> 128	0.5 (≈ 0.563 µM)	> 128	8 (≈ 9.01 µM)		1 (≈ 1.13 µM)	0.5 (≈ 0.563 µM)	16 (≈ 18 µM)		0.5 (≈ 0.563 µM)		0.5 (≈ 0.563 µM)	4 (≈ 4.5 µM)	8 (≈ 9.01 µM)	
